The record followed here is patent US10793576B2, “Compound used as Bruton's tyrosine kinase inhibitor and preparation method and application thereof” (Chengdu Brilliant Pharmaceutical Co., LTD., priority 2017, dated 2020).

Series [1] concerns OCI-LY10 cells. Description: Cell proliferation inhibition in vitro, OCI-ly10 cells by CCK-8 method. It counts as cell-based. To be noted: 72 hours, read-out: Inhibitions of cell activities IC50 (nM) OCI-LY10. As for the experimental part: (§1) Test Example 2: Determination of the Inhibition of Cell Proliferation Inhibitory Activity in
(§2) vitro of compounds using different cell lines
(§3) 2: Preparation of the Compounds:
(§4) The compounds to be tested were diluted with DMSO to prepare a mother liquor at a final concentration of 10 mM for later use.
(§5) 3.1. Test of TMD8 and OCI-ly10 Cells by CCK-8 Method
(§6) Logarithmic growth phase cells were collected, counted and resuspended in complete medium. The cell concentration was adjusted to a suitable concentration (determined according to the cell density optimization test results), and seeded to 96-well plate and 100 μl of the cell suspension was added to each well. The cells were incubated in an incubator at 37° C., 100% relative humidity and 5% C02 for 24 hours.
(§7) The compounds to be tested were diluted with the medium to the set corresponding action concentration, and the cells were added at 25 µl/well. The cells were incubated in an incubator at 37° C., 100% relative humidity and 5% C02 for 72 hours.
(§8) The medium was aspirated and discarded, and a complete medium containing 10% of the test reagent was added and the obtained system was incubated in a 37° C. incubator for 1 hour-4 hours.
(§9) As: OA of the sample (cell+test reagent+test compound)
(§10) Ac: OA of the negative control (cell+test reagent+DMSO)
(§11) Ab: OA of the positive control (medium+test reagent+DMSO)
(§12) IC50 curve fitting was performed using the software Graphpad Prism 5 or XLfit and IC50 values were calculated.

Series [2] concerns TMD8 cells. Description: Cell proliferation inhibition in vitro, TMD8 cells by CCK-8 method. Particulars: 72 hours, read-out: Inhibitions of cell activities IC50 (nM) TMD8. It counts as cell-based. The protocol:
as §1, §2, §3, §4, §5, §6, §7, §8, §9, §10, §11, §12

Series [3] can be described thus: Pharmacokinetic test in SD rats (oral 10 mg/kg, intravenous 1 mg/kg). In kind it is in vivo. To be noted: SD rat. The protocol: SD rat, male (purchased from Shanghai Sippr-Bk Laboratory Animal Co., Ltd.), each tested compound was administered at a single dose to SD rats by oral administration (10 mg/kg, 3 rats in each group) and intravenous administration (1 mg/kg, 3 rats in each group) for the pharmacokinetic study. The tested compounds were dissolved using DMSO/[…] sodium chloride injection=5/95 (V/V), and vortexed for 1 minute, and after 1 minute of sonication, the compounds were formulated into solutions for administrations. Animals were fasted for 16-17 hours prior to oral administration and feeding was restored 4 hours after administration. After oral and intravenous administration, pharmacokinetic samples were collected from SD rats by jugular vein or cardiac puncture at the following time points: before administration, 5 minute, 15 minute, 30 minute, 1 hour, 2 hours, 4 hours, 6 hours, 8 hours and 24 hours after administration. 3 whole blood samples were collected at each time point, and the collected amount was about 0.2 mL, and the collected samples were anticoagulated by heparin sodium. After collection, the blood samples were immediately placed on ice and centrifuged to separate plasma within 30 minutes (centrifugation conditions: 8000 rpm, 6 minute, 2-8° C.). The collected plasma was stored at −70° C. prior to analysis. 50 μL of plasma sample was brought into a 1.5 mL centrifuge tube, 250 μL of internal standard solution (blank with no internal standard but the same volume of methanol added) was added, blended with vortex, centrifuged at 15000 rpm for 5 minutes. 200 μL of supernatant was taken and added to a 96-well sample plate and the samples were analyzed by LC-MS/MS.

For series [4], the system named is DOHH2 cells. The experiment in a line: Cell proliferation inhibition in vitro, DOHH2 cells by CTG assay. In kind it is cell-based. To be noted: read-out: Inhibitions of cell activities IC50 (nM) DOHH2. The protocol: as §1, §2, §3, §4
3.2 Test of DOHH2 Cells by CTG Assay
as §6
The compounds to be tested were diluted with the medium to the set corresponding action concentration, and the cells were added at 10 µl/well. The cells were incubated in an incubator set at 37° C., 100% relative humidity and 5% C02 for 72 hours.
The medium was aspirated and discarded, and 30 μl of test reagent was added. The plate was gentle shaken away from the light to lyse the cells.
as §9, §10, §11, §12

Series [5] deals with BTK kinase (Homo sapiens (Human), UniProt Q06187). Description: In vitro assay for the inhibition of BTK kinase activity (Mobility-Shift Assay). It counts as biochemical. The method, boiled down: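 Fluorescently labelled peptide substrate converted by the kinase; substrate and phosphorylated product separated by charge on a microfluidic chip (mobility shift) and quantified separately. Results expressed as conversion rate; control wells received 100% DMSO.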
BTK kinase, sequence (Q06187 whole entry): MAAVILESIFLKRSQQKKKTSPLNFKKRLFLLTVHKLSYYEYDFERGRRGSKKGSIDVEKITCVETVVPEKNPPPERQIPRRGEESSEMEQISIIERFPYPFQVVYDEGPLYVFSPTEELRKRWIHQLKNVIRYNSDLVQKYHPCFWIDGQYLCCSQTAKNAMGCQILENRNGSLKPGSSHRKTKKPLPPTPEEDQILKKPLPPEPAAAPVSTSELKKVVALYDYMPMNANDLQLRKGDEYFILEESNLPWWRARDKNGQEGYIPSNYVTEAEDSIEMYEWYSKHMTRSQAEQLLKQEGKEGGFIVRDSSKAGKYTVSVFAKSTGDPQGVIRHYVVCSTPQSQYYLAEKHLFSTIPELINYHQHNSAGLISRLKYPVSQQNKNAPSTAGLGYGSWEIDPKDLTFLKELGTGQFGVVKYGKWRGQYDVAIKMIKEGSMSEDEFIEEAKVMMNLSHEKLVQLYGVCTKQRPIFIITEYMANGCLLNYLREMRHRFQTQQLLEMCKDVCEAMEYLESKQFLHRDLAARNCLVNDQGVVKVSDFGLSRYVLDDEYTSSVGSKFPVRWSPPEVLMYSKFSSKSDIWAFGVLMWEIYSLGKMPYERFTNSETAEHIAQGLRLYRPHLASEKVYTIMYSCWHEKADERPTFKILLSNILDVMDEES

Structures are written as SMILES. Read-outs that look alike come from different tables or passages of the source.

By IC50 is commonly meant the midpoint of a concentration-inhibition curve. In general, AUC refers to the area under the concentration-time curve, a measure of exposure. Lower therefore signals low exposure. As usually defined, the Cmax is the highest concentration seen after dosing. The term Tmax denotes the time from dosing to the highest level.

Regarding `CC#CC(=O)N1CCC[C@H]1c1nc(-c2ccc(C(=O)Nc3ccccn3)cc2)c2c(N)nccn12` [ACP-196, reference compound], in series [1] (Homo sapiens), the IC50 was 1.4 nM. Also, the IC50 in series [2] (Homo sapiens) amounted to 1.3 nM. The “F (po) %” value in series [3] (oral 10 mg/kg vs intravenous 1 mg/kg) was determined as 19.75%. In series [3] (male, plasma, intravenous 1 mg/kg, read-out: Cl (iv) (converted)), the clearance was 125 mL/min/kg. Moreover, the half-life in series [3] (male, plasma, intravenous 1 mg/kg, read-out: T½ (iv) h (converted)) is 7.8 min. Besides, in series [3] (male, plasma, oral 10 mg/kg), the AUC worked out at 266 ng·h/mL, the concentration peaked (Cmax) at 266 ng/mL and the Tmax was 4.8 min. Moreover, in series [4] (Homo sapiens, DOHH-2, 72 hours), the IC50 is more than 1000 nM.

Turning to `C=CC(=O)N1C2CCC1(c1nc(-c3ccc(Oc4ccccc4)cc3)c3c(N)nccn13)COC2` (centres unmarked) [Example 104], the IC50 was determined as 0.42 nM in series [1] (Homo sapiens); 3.6 nM in series [2] (Homo sapiens); 4.6 nM in series [5]; 718 nM in series [4] (Homo sapiens, DOHH-2, 72 hours).

With `CC#CC(=O)N1C2CCC1(c1nc(-c3ccc(Oc4ccccc4)cc3)c3c(N)nccn13)COC2` (centres unmarked) [Example 105], the IC50 came out at 0.41 nM in series [1] (Homo sapiens); 8.4 nM in series [2] (Homo sapiens); 18 nM in series [5]; 916 nM in series [4] (Homo sapiens, DOHH-2, 72 hours).

With `C=CC(=O)N1C2CN[C@@H](C2)C1c1nc(-c2ccc(Oc3ccccc3)cc2)c2c(N)nccn12` (some centres unmarked) [Example 106], the IC50 in series [1] (Homo sapiens) is 0.78 nM; in series [2] (Homo sapiens), 21.4 nM; in series [5] it was 47 nM; in series [4] (Homo sapiens, DOHH-2, 72 hours) it was more than 1000 nM.

With `CC#CC(=O)N1C2CN[C@@H](C2)C1c1nc(-c2ccc(Oc3ccccc3)cc2)c2c(N)nccn12` (some centres unmarked) [Example 107], the IC50 amounted to 0.81 nM in series [1] (Homo sapiens); 12.3 nM in series [2] (Homo sapiens); 41 nM in series [5]; 986 nM in series [4] (Homo sapiens, DOHH-2, 72 hours).

As to `C=CC(=O)N1C2C[C@@H](C1c1nc(-c3ccc(Oc4ccccc4)cc3)c3c(N)nccn13)N(C)C2` (some centres unmarked) [Example 108], the half-maximal inhibitory concentration (IC50) in series [1] (Homo sapiens) was 2.7 nM; in series [2] (Homo sapiens), 14.3 nM; in series [5] it was 72 nM; in series [4] (Homo sapiens, DOHH-2, 72 hours), more than 1000 nM.

As for `C=CC(=O)N1C2C[C@@H](C1c1nc(-c3ccc(Oc4ccccc4)cc3)c3c(N)nccn13)N(C(C)C)C2` (some centres unmarked) [Example 109], the IC50 in series [1] (Homo sapiens) was 0.31 nM; in series [2] (Homo sapiens) it was 7.2 nM; in series [5] it was 19 nM; in series [4] (Homo sapiens, DOHH-2, 72 hours), 184 nM.

Consider `C=CC(=O)N1C2C[C@@H](C1c1nc(-c3ccc(Oc4ccccc4)cc3)c3c(N)nccn13)N(C(C)=O)C2` (some centres unmarked) [Example 110], for which the IC50 in series [1] (Homo sapiens) was found to be 0.21 nM; in series [2] (Homo sapiens) it was 1.2 nM; in series [5], 36 nM; in series [4] (Homo sapiens, DOHH-2, 72 hours), 198 nM.

Turning to `CC#CC(=O)N1C2C[C@@H](C1c1nc(-c3ccc(Oc4ccccc4)cc3)c3c(N)nccn13)N(C(C)C)C2` (some centres unmarked) [Example 111], the half-maximal inhibitory concentration (IC50) in series [1] (Homo sapiens) worked out at 2.1 nM; in series [2] (Homo sapiens) it was 4.3 nM; in series [5], 30 nM; in series [4] (Homo sapiens, DOHH-2, 72 hours), 672 nM.

Consider `CN(C)C/C=C/C(=O)N1CC2(CC2)C[C@H]1c1nc(-c2ccc(C(=O)Nc3ccccn3)cc2)c2c(N)nccn12` [Example 112, (S,E)-4-(8-amino-3-(5-(4-(dimethylamino)but-2-enoyl)-5-azaspiro[2.4]heptan-6-yl)imidazo[1,5-a]pyrazin-1-yl)-N-(pyridin-2-yl)benzamide], for which the IC50 was found to be 0.41 nM in series [1] (Homo sapiens); 0.31 nM in series [2] (Homo sapiens); 21 nM in series [5]; 902 nM in series [4] (Homo sapiens, DOHH-2, 72 hours).

Consider `CN(C)C/C=C/C(=O)N1CC2CCCC2[C@H]1c1nc(-c2ccc(C(=O)Nc3ccccn3)cc2)c2c(N)nccn12` (stereo partly drawn) [Example 113, 4-(8-amino-3-((1S)-2-((E)-4-(dimethylamino)-2-butenoyl)octahydrocyclopenta [c]pyrrol-1-yl)imidazo[1,5-a]pyrazin-1-yl)-N-(pyridin-2-yl)benzamide], for which the concentration for half-maximal inhibition (IC50) is 7.4 nM in series [1] (Homo sapiens); 12.5 nM in series [2] (Homo sapiens); 4.6 nM in series [5]; more than 1000 nM in series [4] (Homo sapiens, DOHH-2, 72 hours).

In the case of `CN(C/C=C/C(=O)N1CC2CCCC2[C@H]1c1nc(-c2ccc(C(=O)Nc3ccccn3)cc2)c2c(N)nccn12)C1CC1` (stereo partly drawn) [Example 115, 4-(8-amino-3-((1S)-2-((E)-4-(cyclopropyl(methyl)amino)-2-butenoyl)octahydrocyclopenta[c]pyrrol-1-yl)imidazo[1,5-a]pyrazin-1-yl)-N-(pyridin-2-yl) benzamide], the IC50 was 12.1 nM in series [1] (Homo sapiens); 17.6 nM in series [2] (Homo sapiens); 26 nM in series [5]; more than 1000 nM in series [4] (Homo sapiens, DOHH-2, 72 hours).

With `C=CC(=O)N1[C@H]2CC[C@@H]1[C@@H](c1nc(-c3ccc(C(=O)Nc4ccccn4)cc3)c3c(N)nccn13)C2` [Example 118, 4-(3-((1R,2S,4S)-7-acryloyl-7-azabicyclo[2.2.1]heptan-2-yl)-8-aminoimidazo[1,5-a]pyrazin-1-yl)-N-(pyridin-2-yl)benzamide], the IC50 in series [1] (Homo sapiens) was determined as 4.1 nM; in series [2] (Homo sapiens) it was 3.9 nM; in series [5], 5.6 nM; in series [4] (Homo sapiens, DOHH-2, 72 hours), 712 nM.

On to `CC#CC(=O)N1[C@H]2CC[C@@H]1[C@@H](c1nc(-c3ccc(C(=O)Nc4ccccn4)cc3)c3c(N)nccn13)C2` [Example 119, 4-(8-amino-3-((1R,2S,4S)-7-(but-2-ynoyl)-7-azabicyclo[2.2.1]heptan-2-yl)imidazo[1,5-a]pyrazin-1-yl)-N-(pyridin-2-yl)benzamide], for which the IC50 is 0.42 nM in series [1] (Homo sapiens); 2.4 nM in series [2] (Homo sapiens); 43 nM in series [5]; more than 1000 nM in series [4] (Homo sapiens, DOHH-2, 72 hours).

Take `C=CC(=O)N1CC2CCC1(c1nc(-c3ccc(C(=O)Nc4ccccn4)cc3)c3c(N)nccn13)CC2` [Example 120, 4-(3-(2-acryloyl-2-azabicyclo[2.2.2]octan-1-yl)-8-aminoimidazo[1,5-a]pyrazin-1-yl)-N-(pyridin-2-yl)benzamide]: the IC50 in series [1] (Homo sapiens) was found to be 4.1 nM; in series [2] (Homo sapiens) it was 6.4 nM; in series [5], 24 nM; in series [4] (Homo sapiens, DOHH-2, 72 hours), 921 nM.

On to `C=CC(=O)N1CC2(CC2)C[C@H]1c1nc(-c2cccc(C(=O)Nc3ccccn3)c2)c2c(N)nccn12` [Example 124, (S)-3-(3-(5-acryloyl-5-azaspiro[2.4]heptan-6-yl)-8-aminoimidazo[1,5-a]pyrazin-1-yl)-N-(pyridin-2-yl)benzamide], for which the IC50 in series [1] (Homo sapiens) is 1.5 nM; in series [2] (Homo sapiens), 11.8 nM; in series [5], 18 nM; in series [4] (Homo sapiens, DOHH-2, 72 hours), 629 nM.

As to `C=CC(=O)N1CC2(CC2)C[C@H]1c1nc(-c2ccccc2C(=O)Nc2ccccn2)c2c(N)nccn12` [Example 125, (S)-2-(3-(5-acryloyl-5-azaspiro[2.4]heptan-6-yl)-8-aminoimidazo[1,5-a]pyrazin-1-yl)-N-(pyridin-2-yl)benzamide], the concentration for half-maximal inhibition (IC50) in series [1] (Homo sapiens) was 8.7 nM; in series [2] (Homo sapiens), 24.9 nM; in series [5], 58 nM; in series [4] (Homo sapiens, DOHH-2, 72 hours), more than 1000 nM.

Consider `C=CC(=O)N1C(c2nc(-c3ccc(C(=O)Nc4ccccn4)cc3)c3c(N)nccn23)[C@@H]2C[C@H]1CN2C(=O)OC(C)(C)C` (stereo partly drawn) [Example 126, (1 S,4S)-tert-butyl-5-acryloyl-6-(8-amino-1-(4-(pyridin-2-carbamoyl)phenyl)imidazo[1,5-a]pyrazin-3-yl)-2,5-diazabicyclo[2.2.1]heptane-2-carboxylate], for which the IC50 in series [1] worked out at 0.8 nM; in series [2], 1.6 nM; in series [5] it was 4.4 nM; in series [4] (72 hours), 206 nM.
